Measurements reported in patent publication US8163898B2, “4-sulfonylpiperidine derivatives” (MSD K. K., priority 2007, dated 2012).

Each molecule was assayed against T1, human LCE (Homo sapiens, UniProt Q9H5J4) (assay: LCE enzyme activity inhibition test). Conditions: not given.
T1 sequence (Q9H5J4 1-265): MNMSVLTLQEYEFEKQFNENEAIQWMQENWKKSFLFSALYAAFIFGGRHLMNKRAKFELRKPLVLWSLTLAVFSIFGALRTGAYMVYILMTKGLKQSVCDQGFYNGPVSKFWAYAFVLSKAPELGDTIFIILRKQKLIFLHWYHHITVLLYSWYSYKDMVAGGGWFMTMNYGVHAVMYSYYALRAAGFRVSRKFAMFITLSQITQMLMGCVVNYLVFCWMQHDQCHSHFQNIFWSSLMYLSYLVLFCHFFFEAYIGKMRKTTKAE
Assay type: biochemical
Description: Pharmacological Test Example 1 (LCE Enzyme Activity Inhibition Test)
A test compound was dissolved in dimethylsulfoxide (DMSO) to 10 mM, and further diluted with DMSO to prepare a 1000-fold concentrated solution, compared with the evaluated concentration. The LCE enzyme activity inhibition test was carried out according to a modification of the method of Moon (J. Biol. Chem., Vol. 276, pp. 45358-45366 (2001)) et al. Specifically, the diluted test compound was added to a 96-well assay plate (Corning, 96-well assay block) at 1.0 μL per well, and then 50 μL of phosphate buffer solution (100 mM potassium phosphate buffer solution (pH 6.5)), 25 μL of substrate solution (100 mM potassium phosphate buffer solution (pH 6.5)), 4.0 μM rotenone, 80 μM fatty acid free bovine serum albumin, 160 μM palmitoyl-CoA 80 μM malonyl-CoA, and 3.5 μM [^14C]-malonyl-CoA (1.92 GBq/mmol, manufactured by Amersham) were added to each well. Further, 25 μL of enzyme solution (100 mM potassium phosphate buffer solution (pH 6.5), 100 μg/mL human LCE) was added thereto. The plate was hermetically closed at the top with a seal, and then incubated with gentle agitation by shaking at 37° C. for 90 minutes. Subsequently, 100 μL of 5N HCl was added to each well, and the assay plate was agitated for 5 minutes at room temperature to stop the enzymatic reaction and also hydrolyze acyl-CoA. Subsequently, the enzymatic reaction solution of each well was adsorbed on each well of a 96-well GF/C filter plate (PerkinElmer, UniFilter 96 GF/C) that had been previously dipped in water. The wells were washed with water to remove unabsorbed malonyl-CoA, and the GF/C filter plate was dried at 50° C. for 60 minutes. Subsequently, 30 μL of scintillator (PerkinElmer, MicroScinti 0) was added to each well, and the plate was sealed at the top. Using a microplate scintillation counter (PerkinElmer, TopCount), the radiation activity of the fixed [^14C] was measured and obtained as the enzyme activity. The human LCE enzyme inhibitory activity of a test compound was calculated based on the radio activity in the well containing test-compound-free DMSO as a control. Compounds of the invention were examined according to this assay.

| Structure (SMILES) | IC50 [nM] |
| --- | --- |
| O=C(Nc1ccc(C(F)(F)F)cc1)N1C2CCC1CC(S(=O)(=O)c1ccccn1)C2 (centres unmarked) [Example 9, 3-(pyridin-2-ylsulfonyl)-N-[(4-trifluoromethyl)phenyl]-8-azabicyclo[3.2.1]octane-8-carboxamide] | 92 |

Same assay, conditions: human LCE; [14C]-malonyl-CoA and palmitoyl-CoA substrate; 37° C. for 90 minutes; pH 6.5; read-out: IC50

| IC50 [nM] | Structure (SMILES) |
| --- | --- |
| 108 | O=C(Nc1ccc(C(F)(F)F)cc1)N1C2CCC1CC(S(=O)(=O)c1ccc(F)cc1)C2 (centres unmarked) [Example 2, 3-(4-fluorophenyl)sulfonyl-N-[(4-trifluoromethyl)phenyl]-8-azabicyclo[3.2.1]octane-8-carboxamide] |
| 125 | CC(C)(C)c1ccc(NC(=O)N2C3CCC2CC(S(=O)(=O)c2ccccn2)C3)cc1 (centres unmarked) [Example 40, N-(4-tert-butylphenyl)-3-(pyridin-2-ylsulfonyl)-8-azabicyclo[3.2.1]octane-8-carboxamide] |
| 98 | O=C(Nc1ccc(C(F)(F)F)cc1)N1C2CCC1CC(S(=O)(=O)c1ccccc1)C2 (centres unmarked) [Example 1, 3-phenylsulfonyl-N-[(4-trifluoromethyl)phenyl]-8-azabicyclo[3.2.1]octane-8-carboxamide] |
| 127 | O=C(Nc1ccc(C(F)(F)F)nc1)N1C2CCC1CC(S(=O)(=O)c1ccccc1)C2 (centres unmarked) [Example 32, 3-phenylsulfonyl-N-[6-(trifluoromethyl)pyridin-3-yl]-8-azabicyclo[3.2.1]octane-8-carboxamide] |
| 103 | O=C(Nc1cncc(C(F)(F)F)c1)N1C2CCC1CC(S(=O)(=O)c1ccccc1)C2 (centres unmarked) [Example 33, 3-phenylsulfonyl-N-[5-(trifluoromethyl)pyridin-3-yl]-8-azabicyclo[3.2.1]octane-8-carboxamide] |
| 194 | O=C(Nc1ccc(C(F)(F)F)cn1)N1C2CCC1CC(S(=O)(=O)c1ncccn1)C2 (centres unmarked) [Example 35] |
| 32 | CC(C)c1ccc(NC(=O)N2C3CCC2CC(S(=O)(=O)c2ccccn2)C3)cc1 (centres unmarked) [Example 36, N-(4-isopropylphenyl)-3-(pyridin-2-ylsulfonyl)-8-azabicyclo[3.2.1]octane-8-carboxamide] |
| 22 | CC(C)c1ccc(NC(=O)N2C3CCC2CC(S(=O)(=O)c2ncccn2)C3)cc1 (centres unmarked) [Example 37, N-(4-isopropylphenyl)-3-(pyrimidin-2-ylsulfonyl)-8-azabicyclo[3.2.1]octane-8-carboxamide] |
| 100 | O=C(Nc1ccc(C(F)(F)F)cc1)N1C2CCC1CC(S(=O)(=O)c1ncccn1)C2 (centres unmarked) [Example 12, 3-(pyrimidin-2-ylsulfonyl)-N-[(4-trifluoromethyl)phenyl]-8-azabicyclo[3.2.1]octane-8-carboxamide] |
| 29 | CC(C)c1ccc(NC(=O)N2C3CCC2CC(S(=O)(=O)c2ccccc2)C3)cc1 (centres unmarked) [Example 16, N-(4-isopropylphenyl)-3-phenylsulfonyl-8-azabicyclo[3.2.1]octane-8-carboxamide] |
